Target: T1, human cloned 5-HT6 receptors (Homo sapiens, UniProt P50406)
T1 construct: expressed in transfected cells; host or cells: Hela cells
Experiment: 5-HT6 binding affinity, [3H]-LSD displacement in membranes of Hela cells
Settings: not given
Protocol: The affinity of test compounds for the serotonin 5-HT6 receptor is evaluated in the following manner. Cultured Hela cells expressing human cloned 5-HT6 receptors are harvested and centrifuged at low speed (1,000×g) for 10.0 min to remove the culture media. The harvested cells are suspended in half volume of fresh physiological phosphate buffered saline solution and recentrifuged at the same speed. This operation is repeated. The collected cells are then homogenized in ten volumes of 50 mM Tris.HCl (pH 7.4) and 0.5 mM EDTA. The homogenate is centrifuged at 40,000×g for 30.0 min and the precipitate is collected. The obtained pellet is resuspended in 10 volumes of Tris.HCl buffer and recentrifuged at the same speed. The final pellet is suspended in a small volume of Tris.HCl buffer and the tissue protein content is determined in aliquots of 10-25 μl volumes. Bovine Serum Albumin is used as the standard in the protein determination according to the method described in Lowry et al., J. Biol. Chem., 193:265 (1951). The volume of the suspended cell membranes is adjusted to give a tissue protein concentration of 1.0 mg/ml of suspension. The prepared membrane suspension (10 times concentrated) is aliquoted in 1.0 ml volumes and stored at −70° C. until used in subsequent binding experiments.
The reaction is allowed to proceed in the dark for 120 min at room temperature, at which time, the bound ligand-receptor complex is filtered off on a 96 well unifilter with a Packard Filtermate® 196 Harvester. The bound complex caught on the filter disk is allowed to air dry and the radioactivity is measured in a Packard TopCount® equipped with six photomultiplier detectors, after the addition of 40.0 μl Microscint®-20 scintillant to each shallow well. The unifilter plate is heat-sealed and counted in a PackardTopCount® with a tritium efficiency of 31.0%.
Specific binding to the 5-HT6 receptor is defined as the total radioactivity bound less the amount bound in the presence of 10.0 μM unlabeled methiothepin. Binding in the presence of varying concentrations of test compound is expressed as a percentage of specific binding in the absence of test compound. The results are plotted as logit % bound versus log concentration of test compound. Nonlinear regression analysis of data points with a computer assisted program Prism® yields both the IC50 and the Ki values of test compounds with 95% confidence limits.
The amount of displacement by the test compound is given in percent (%) inhibition and is derived from the following equation: [formula] where B0 is the amount of CPM bound in the presence of the testing agent. NSB represents the CPM bound in the presence of a saturating concentration of a displacer and TB represents the total amount of CPM bound at zero (0) concentration of test compound.
Alternatively, a linear regression line of decline of data points is plotted, from which the IC50 value can be read off and the Ki value determined by solving the following equation: [formula] where L is the concentration of the radioactive ligand used and KD is the dissociation constant of the ligand for the receptor, both expressed in nM.

T1 sequence (P50406 whole entry): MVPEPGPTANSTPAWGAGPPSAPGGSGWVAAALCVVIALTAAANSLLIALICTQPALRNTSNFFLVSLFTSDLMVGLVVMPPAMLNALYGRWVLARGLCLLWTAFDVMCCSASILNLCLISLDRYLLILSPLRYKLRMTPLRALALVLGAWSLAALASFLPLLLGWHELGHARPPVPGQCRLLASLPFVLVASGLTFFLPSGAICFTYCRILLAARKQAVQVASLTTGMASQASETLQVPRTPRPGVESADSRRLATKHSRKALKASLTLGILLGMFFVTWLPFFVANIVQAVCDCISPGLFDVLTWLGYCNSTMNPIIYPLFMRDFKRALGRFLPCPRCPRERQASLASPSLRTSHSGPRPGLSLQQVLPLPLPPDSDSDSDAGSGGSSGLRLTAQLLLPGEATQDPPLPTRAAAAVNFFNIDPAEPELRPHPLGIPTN

SMILES | Ki
CC(=NNC(=N)N)c1cn(S(=O)(=O)c2ccc(F)cc2)c2ccccc12 [Example 44, 2-(1-{1-[(4-fluorophenyl)sulfonyl]-1H-indol-3-yl}ethylidene)hydrazinecarboximidamide] | 33 nM
CC(=NNC(=N)N)c1cn(S(=O)(=O)c2ccc(Br)s2)c2ccccc12 [Example 33, 2-(1-{1-[(5-bromothien-2-yl)sulfonyl]-1H-indol-3-yl}ethylidene)hydrazinecarboximidamide] | 19 nM

Same assay, conditions: test compound dose 10 nM; [3H]-LSD 3.0 nM

SMILES | inhibition at 0.01 µM
N=C(N)NN=C(c1cn(S(=O)(=O)c2ccc3ccccc3c2)c2ccccc12)C1CC1 [Example 66, 2-{cyclopropyl[1-(2-naphthylsulfonyl)-1H-indol-3-yl]methylidene}hydrazinecarboximidamide] | 35.1%

Same assay, conditions: test compound dose 100 nM; [3H]-LSD 3.0 nM

SMILES | inhibition at 0.1 µM
CC(=NNC(=N)N)c1cn(S(=O)(=O)c2ccc(F)cc2)c2ccccc12 [Example 44, 2-(1-{1-[(4-fluorophenyl)sulfonyl]-1H-indol-3-yl}ethylidene)hydrazinecarboximidamide] | 75.5%
CS(=O)(=O)n1cc(C(=NNC(=N)N)C2CC2)c2cc(Cl)ccc21 [Example 74, 2-[[5-chloro-1-(methylsulfonyl)-1H-indol-3-yl](cyclopropyl)methylidene]hydrazinecarboximidamide] | 68.5%
CCCCS(=O)(=O)n1cc(C(=NNC(=N)N)C2CC2)c2ccccc21 [Example 60, 2-[[1-(butylsulfonyl)-1H-indol-3-yl](cyclopropyl)methylidene]hydrazinecarboximidamide] | 62.6%
N=C(N)NN=C(c1cn(S(=O)(=O)c2ccccc2)c2ccc(Cl)cc12)C1CC1 [Example 86, 2-[[5-chloro-1-(phenylsulfonyl)-1H-indol-3-yl](cyclopropyl)methylidene]hydrazinecarboximidamide] | 78.1%
CCCCS(=O)(=O)n1cc(C(=NNC(=N)N)C2CC2)c2ccc(F)cc21 [Example 105, 2-[[1-(butylsulfonyl)-6-fluoro-1H-indol-3-yl](cyclopropyl)methylidene]hydrazinecarboximidamide] | 58.4%
CS(=O)(=O)n1cc(C(=NNC(=N)N)C2CC2)c2ccccc21 [Example 57, 2-{cyclopropyl[1-(methylsulfonyl)-1H-indol-3-yl]methylidene}hydrazinecarboximidamide] | 40.4%
CC(=NNC(=N)N)c1cn(S(=O)(=O)c2ccc(Br)s2)c2ccccc12 [Example 33, 2-(1-{1-[(5-bromothien-2-yl)sulfonyl]-1H-indol-3-yl}ethylidene)hydrazinecarboximidamide] | 76.4%
CCCCC(=NNC(=N)N)c1cn(S(=O)(=O)c2ccccc2)c2ccccc12 [Example 67, 2-{1-[1-(phenylsulfonyl)-1H-indol-3-yl]pentylidene}hydrazinecarboximidamide] | 66.3%
CC(=NNC(=N)N)c1cn(S(=O)(=O)c2ccccc2)c2ccc(Cl)cc12 [Example 84, 2-{1-[5-chloro-1-(phenylsulfonyl)-1H-indol-3-yl]ethylidene}hydrazinecarboximidamide] | 81.7%
CC(=NNC(=N)N)c1cn(S(=O)(=O)c2sc3ccc(Cl)cc3c2C)c2ccccc12 [Example 35, 2-(1-{1-[(5-chloro-3-methyl-1-benzothien-2-yl)sulfonyl]-1H-indol-3-yl}ethylidene)hydrazinecarboximidamide] | 39.1%
COc1ccc(S(=O)(=O)n2cc(C(=NNC(=N)N)C3CC3)c3ccccc32)cc1 [Example 63, 2-(cyclopropyl{1-[(4-methoxyphenyl)sulfonyl]-1H-indol-3-yl}methylidene)hydrazinecarboximidamide] | 58.9%
COc1ccc2c(c1)c(C=NNC(=N)N)cn2S(=O)(=O)c1ccccc1 [Example 20, 2-{[5-methoxy-1-(phenylsulfonyl)-1H-indol-3-yl]methylidene}hydrazinecarboximidamide] | 76.3%
CC(=NNC(=N)N)c1c(-c2ccccc2)n(S(=O)(=O)c2ccccc2)c2ccccc12 [Example 15, 2-{1-[2-phenyl-1-(phenylsulfonyl)-1H-indol-3-yl]ethylidene}hydrazinecarboximidamide] | 67.1%
CC(=NNC(=N)N)c1cn(S(=O)(=O)c2cc([N+](=O)[O-])ccc2C)c2ccccc12 [Example 46, 2-(1-{1-[(2-methyl-5-nitrophenyl)sulfonyl]-1H-indol-3-yl}ethylidene)hydrazinecarboximidamide] | 41%
CC(=NNC(=N)NCc1ccccc1)c1cn(S(=O)(=O)c2ccccc2)c2ccccc12 [Example 125, N-benzyl-2-{1-[1-(phenylsulfonyl)-1H-indol-3-yl]ethylidene}hydrazinecarboximidamide] | 39.1%
CC(=NNC(=N)N)c1cn(S(=O)(=O)c2ccc(S(C)(=O)=O)cc2)c2ccccc12 [Example 48, 2-[1-(1-{[4-(methylsulfonyl)phenyl]sulfonyl}-1H-indol-3-yl)ethylidene]hydrazinecarboximidamide] | 43.9%
CC(=NNC(=N)N)c1cn(S(=O)(=O)c2c(C)noc2C)c2ccccc12 [Example 43, 2-(1-{1-[(3,5-dimethylisoxazol-4-yl)sulfonyl]-1H-indol-3-yl}ethylidene)hydrazinecarboximidamide] | 68.9%

Same assay, conditions: test compound dose 1000 nM; [3H]-LSD 3.0 nM; read-out: % Inhibition

SMILES | inhibition at 1 µM
COc1ccc(S(=O)(=O)n2cc(C(C)=NNC(=N)N)c3cc(Cl)ccc32)cc1 [Example 78, 2-(1-{5-chloro-1-[(4-methoxyphenyl)sulfonyl]-1H-indol-3-yl}ethylidene)hydrazinecarboximidamide] | 85.5%
CC(=NNC(=N)N)c1cn(S(=O)(=O)c2ccccc2)c2cc(F)ccc12 [Example 112, 2-{1-[6-fluoro-1-(phenylsulfonyl)-1H-indol-3-yl]ethylidene}hydrazinecarboximidamide] | 94.6%
N=C(N)NN=C(c1cn(S(=O)(=O)c2ccc3ccccc3c2)c2ccc(Cl)cc12)C1CC1 [Example 83, 2-[[5-chloro-1-(2-naphthylsulfonyl)-1H-indol-3-yl](cyclopropyl)methylidene]hydrazinecarboximidamide] | 89.3%
COc1ccc(S(=O)(=O)n2cc(C(C)=NNC(=N)N)c3ccc(F)cc32)cc1 [Example 106, 2-(1-{6-fluoro-1-[(4-methoxyphenyl)sulfonyl]-1H-indol-3-yl}ethylidene)hydrazinecarboximidamide] | 64.4%
CCCCC(=NNC(=N)N)c1cn(S(=O)(=O)c2ccc(OC)c(OC)c2)c2ccccc12 [Example 70, 2-(1-{1-[(3,4-dimethoxyphenyl)sulfonyl]-1H-indol-3-yl}pentylidene)hydrazinecarboximidamide] | 89.8%
COc1ccc(S(=O)(=O)n2c(-c3ccc(Cl)cc3)c(C(C)=NNC(=N)N)c3ccccc32)cc1OC [Example 98, 2-(1-{2-(4-chlorophenyl)-1-[(3,4-dimethoxyphenyl)sulfonyl]-1H-indol-3-yl}ethylidene)hydrazinecarboximidamide] | 53.3%
CC(C)C(=NNC(=N)N)c1cn(S(=O)(=O)c2ccccc2)c2ccccc12 [Example 5, 2-{2-methyl-1-[1-(phenylsulfonyl)-1H-indol-3-yl]propylidene}hydrazinecarboximidamide] | 91.5%
CCCCC(=NNC(=N)N)c1cn(S(=O)(=O)c2ccc(OC)c(OC)c2)c2cc(F)ccc12 [Example 116, 2-(1-{1-[(3,4-dimethoxyphenyl)sulfonyl]-6-fluoro-1H-indol-3-yl}pentylidene)hydrazinecarboximidamide] | 73.5%
CC(=NNC(=N)N)c1c(-c2ccc(F)c(F)c2)n(S(=O)(=O)c2ccccc2)c2ccccc12 [Example 13, 2-{1-[2-(3,4-difluorophenyl)-1-(phenylsulfonyl)-1H-indol-3-yl]ethylidene}hydrazinecarboximidamide] | 86%
